Source: patent publication US20240238232A1, “COMPOSITIONS AND METHODS FOR THE REDUCTION OR TREATMENT OF INSULIN RESISTANCE AND METABOLIC CONDITIONS” (AXCELLA HEALTH INC., priority 2018, published 2024)

Tested on: Human CCL2 (MCP-1)
Test: MCP1/CCL2 secretion in primary human hepatocytes (FFA + TNFα, ELISA after 24 h)
Format: cell-based
Settings: for MCP1 expression relative to Control, Mean: baseline subtracted; for MCP1/CCL2 secretion: primary human hepatocytes from two healthy donors, FFA + TNFα, 24 h
Description: Hepatocyte lipotoxicity appears to be a central driver of hepatic cellular injury via oxidative stress and endoplasmic reticulum (ER) stress. The ability of amino acids to influence steatosis (lipid accumulation) and inflammation in hepatocytes was assessed using human primary hepatocytes (Lonza, TRL).
Primary hepatocytes lot nos. from two healthy human donors were seeded on day 0 at density of 6e04 cells in 96 well optical microplates (Thermofisher) in hepatocyte plating media (William's E medium (Gibco) supplemented with 10% heat-inactivated FBS (Atlanta Bio), 2 mM Glutamax (Gibco), and 0.2% Primocin (InVivoGen) and incubated for 6 hours at 37° C., 5% CO2. After 6 hours, cells were washed twice and incubated overnight at 37° C., 5% CO2 with Hepatocytes defined medium (Corning) supplemented with 2 mM Glutamax (Gibco), and 1×Penicillin/Streptomycin. On day 1, cells were washed twice and incubated for 24 h in the hepatocyte culture media in the same conditions described above.
On day 2, cells were washed twice with DPBS 1 X (Gibco) and maintained in amino acid-free WEM (US Biologicals) containing a defined custom amino acid concentration based on the mean physiological concentrations in blood. The values are published in the Human Metabolome Database (Wishart D S, Tzur D, Knox C, et al., HMDB: the Human Metabolome Database. Nucleic Acids Res. 2007 January; 35 (Database issue): D521-6. 17202168; which is hereby incorporated by reference in its entirety). This custom media is supplemented with 11 mM Glucose, 0.272 mM Sodium Pyruvate, and a dose curve of defined amino acid compositions (i.e., vehicle, LIVRQ+N-acetylcysteine, LIVRQ, RQ+N-acetylcysteine, N-acetylcysteine alone, LIV, or individually with L-Leucine, L-Isoleucine, L-Valine, L-Arginine, L-Glutamine, and L-Cysteine) at various ranges of concentrations. Cells were maintained in this defined media for 24 hours at 37° C., 5% CO2.
Co-treatment with free fatty acids and different amino acids combination After pre-treatment, cells were exposed to free fatty acids (FFA) at 250 uM with a ratio of 2:1 (Oleate: Palmitate) supplemented with TNF-α (Thermofisher) at 1 ng/ml or vehicle. Cells were incubated with the FFAs mixture and the different amino acids combinations for 24 hours at 37° C., 5% CO2. After 24 hours incubation, media was removed for cytokine analysis and replaced by fresh media containing the same stimulus conditions and amino acid concentrations. Cells were incubated for an additional 48 hours for a total of 72 hours of FFA and TNFα stimulation.
Human CCL2 (MCP-1) was measured by ELISA (Human […] DuoSet ELISA, R&D Systems) at ⅕ or 1/10 dilution in 1 X Reagent Diluent (Reagent Ancillary Kit 2, R&D Systems). Data were normalized to the specific per well cell density determined by nuclei count stained by Hoechst 3342 (Life technologies) in the fluorescence microscopy described below.
MCP1 CCL2 Secretion Tables 56-59 show the baseline subtracted secretion of MCP1/CCL2 in primary human hepatocytes cells from two healthy donors (donor 1 for Tables 56 and 57, and donor 2 for Tables 58 and 59).

CC[C@H](C)[C@H](N)C(=O)O [Isoleucine, L-Isoleucine]
MCP1 expression relative to Control, Mean (Donor 1, Conc. 66 μM): −1.2E−15
MCP1 expression relative to Control, Mean (Donor 1, Conc. 1328 μM): −0.3073
MCP1 expression relative to Control, Mean (Donor 1, Conc. 3320 μM): −2.417
MCP1 expression relative to Control, Mean (Donor 1, Conc. 6639 μM): −0.205
MCP1 expression relative to Control, Mean (Donor 2, Conc. 66 μM): 0
MCP1 expression relative to Control, Mean (Donor 2, Conc. 1328 μM): 26.62
MCP1 expression relative to Control, Mean (Donor 2, Conc. 3320 μM): −5.645
MCP1 expression relative to Control, Mean (Donor 2, Conc. 6639 μM): 18.62
MCP1/CCL2 secretion: did not have an effect

CC(C)C[C@H](N)C(=O)O [Leucine, L-Leucine]
MCP1 expression relative to Control, Mean (Donor 1, Conc. 153 μM): 5.92E−16
MCP1 expression relative to Control, Mean (Donor 1, Conc. 3054 μM): 3.34
MCP1 expression relative to Control, Mean (Donor 1, Conc. 7635 μM): 1.896
MCP1 expression relative to Control, Mean (Donor 1, Conc. 15270 μM): −1.368
MCP1 expression relative to Control, Mean (Donor 2, Conc. 153 μM): −4.7E−15
MCP1 expression relative to Control, Mean (Donor 2, Conc. 3054 μM): 16.11
MCP1 expression relative to Control, Mean (Donor 2, Conc. 7635 μM): −2.988
MCP1 expression relative to Control, Mean (Donor 2, Conc. 15270 μM): −26.6436
MCP1/CCL2 secretion: did not have an effect

CC(=O)N[C@@H](CS)C(=O)O [N-acetyl cysteine, N-acetylcysteine]
MCP1 expression relative to Control, Mean (Donor 1, Conc. 1000 μM): −0.7629
MCP1 expression relative to Control, Mean (Donor 1, Conc. 2500 μM): −2.498
MCP1 expression relative to Control, Mean (Donor 1, Conc. 5000 μM): −10.8919
MCP1 expression relative to Control, Mean (Donor 1, Conc. 10000 μM): −17.6065
MCP1 expression relative to Control, Mean (Donor 1, Conc. (X) 5): −0.7629
MCP1 expression relative to Control, Mean (Donor 1, Conc. (X) 10): −2.498
MCP1 expression relative to Control, Mean (Donor 1, Conc. (X) 20): −10.8919
MCP1 expression relative to Control, Mean (Donor 1, Conc. (X) 40): −17.6065
MCP1 expression relative to Control, Mean (Donor 2, Conc. 1000 μM): 1.602
MCP1 expression relative to Control, Mean (Donor 2, Conc. 2500 μM): −4.0591
MCP1 expression relative to Control, Mean (Donor 2, Conc. 5000 μM): −10.5725
MCP1 expression relative to Control, Mean (Donor 2, Conc. 10000 μM): −28.4419
MCP1 expression relative to Control, Mean (Donor 2, Conc. (X) 1000): 1.602
MCP1 expression relative to Control, Mean (Donor 2, Conc. (X) 2500): −4.0591
MCP1 expression relative to Control, Mean (Donor 2, Conc. (X) 5000): −10.5725
MCP1 expression relative to Control, Mean (Donor 2, Conc. (X) 10000): −28.4419
MCP1/CCL2 secretion: significantly decrease

CC(C)[C@H](N)C(=O)O [Valine, L-Valine]
MCP1 expression relative to Control, Mean (Donor 1, Conc. 234 μM): −2.4E−15
MCP1 expression relative to Control, Mean (Donor 1, Conc. 4684 μM): 23.6867
MCP1 expression relative to Control, Mean (Donor 1, Conc. 11710 μM): 77.73
MCP1 expression relative to Control, Mean (Donor 1, Conc. 23420 μM): 14.17
MCP1 expression relative to Control, Mean (Donor 2, Conc. 234 μM): −1.4E−14
MCP1 expression relative to Control, Mean (Donor 2, Conc. 4684 μM): 10.79
MCP1 expression relative to Control, Mean (Donor 2, Conc. 11710 μM): 38.25
MCP1 expression relative to Control, Mean (Donor 2, Conc. 23420 μM): −30.7921
MCP1/CCL2 secretion: did not have an effect

N=C(N)NCCC[C@H](N)C(=O)O [arginine, L-Arginine]
MCP1 expression relative to Control, Mean (Donor 1, Conc. 109 μM): 2.37E−15
MCP1 expression relative to Control, Mean (Donor 1, Conc. 1088 μM): 5.114
MCP1 expression relative to Control, Mean (Donor 1, Conc. 2720 μM): 6.527
MCP1 expression relative to Control, Mean (Donor 1, Conc. 5440 μM): 10.9386
MCP1 expression relative to Control, Mean (Donor 2, Conc. 109 μM): −4.7E−15
MCP1 expression relative to Control, Mean (Donor 2, Conc. 1088 μM): 24.95
MCP1 expression relative to Control, Mean (Donor 2, Conc. 2720 μM): 24.06
MCP1 expression relative to Control, Mean (Donor 2, Conc. 5440 μM): 8.494
MCP1/CCL2 secretion: increased

NC(=O)CC[C@H](N)C(=O)O [glutamine, L-Glutamine]
MCP1 expression relative to Control, Mean (Donor 1, Conc. 749 μM): 0
MCP1 expression relative to Control, Mean (Donor 1, Conc. 3747 μM): −0.8981
MCP1 expression relative to Control, Mean (Donor 1, Conc. 11242 μM): −9.001
MCP1 expression relative to Control, Mean (Donor 1, Conc. 22484 μM): −21.8392
MCP1 expression relative to Control, Mean (Donor 2, Conc. 749 μM): 2.84E−14
MCP1 expression relative to Control, Mean (Donor 2, Conc. 3747 μM): −45.0574
MCP1 expression relative to Control, Mean (Donor 2, Conc. 11242 μM): −90.6558
MCP1 expression relative to Control, Mean (Donor 2, Conc. 22484 μM): −138.873
MCP1/CCL2 secretion: significantly decrease
